This is an account of results in patent publication US7531360B2, “Method of dechlorination treatment of flowing water, in particular upstream of a biological pollution detector” (Societe des Eaux de Marseille, priority 2005, dated 2009).

Data set [1] relates to trout fingerlings. Kind of data set: Tests of known dechlorination agents for use with biological detector. From the text:
The inventors carried out a number of experiments to test the various known dechlorination agents mentioned above.

The subject of data set [2] is trout fingerlings. Briefly: Toxicity of chlorine for trout fingerlings: aquarium with increasing concentrations of sodium hypochlorite. It is filed as in vivo. Conditions: maintained 8 hours. On the procedure: This toxicity of chlorine for trout fingerlings has also been shown by the inventors. Twelve trout fingerlings were maintained in an aquarium containing water chlorinated with increasing concentrations of sodium hypochlorite. Each chlorine concentration was maintained for a period of 8 hours. The aquarium was placed under permanent aeration using an air pump equipped with a porous diffuser. The following table presents the results observed during this experiment.
The following table presents the results observed during this experiment. ([Cl2]=chlorine disinfectant expressed in equivalent Cl2.)

Data set [3] in a line: Maintenance of reducing power of stored ascorbic acid solution over time (iodometry, FIG. 1). Conditions: for Reducing activity of degradation by-product: compared with initial ascorbic acid.
A short description of data set [4]: Effect of excess ascorbic acid on pH, dissolved oxygen and residual chlorine in artificially chlorinated distributed water. Conditions: stoichiometric or slight excess of reducing agent. From the text:
In order to ensure effective dechlorination, it is advantageous to control the system using a chlorine analyzer (a metering pump controlled by a chlorine analyzer). However, to avoid this metering pump control, it is possible to work with a slight excess of ascorbic acid. […] Experiments were thus carried out in this area on artificially chlorinated distributed water to verify these effects.
It should be noted that the pH still remains in a range favorable to the survival of trout fingerlings regardless of the initial pH of the distributed water.

For data set [5], the system named is Fario trout fingerlings. Kind of data set: Validation of treatment installation coupled with TruitoSEM biological detector.
Data set [6] deals with trout fingerlings. The settings on record: ascorbic acid 75 mg/l, 6 trout fingerlings, 15 days. From the text: As for the TruitoSEM, the aquarium was maintained under constant aeration.
The subject of data set [7] is trout fingerlings. Kind of data set: Flowing dechlorination tests in the presence of trout fingerlings. Conditions: continuous period of several days. It is filed as in vivo. On the procedure: The dechlorinated water flowing out of the mixer directly feeds the aquarium, which is equipped with two probes to measure dissolved oxygen, pH and temperature in real time. The aquarium is maintained under permanent aeration so that stress is not induced in the fish due to a lack of dissolved oxygen.
These flowing dechlorination tests were then carried out in the presence of trout fingerlings, for a continuous period of several days.

Data set [8] in a line: Flowing dechlorination test without trout fingerlings (metering pump, in-line mixer, FIG. 2).

Entries after “also recorded” stand apart in the source; their conditions may differ.

On to `O=S([O-])O.[Na+]` [sodium bisulfite, sodium bisulfite (NaHSO3)], for which the “Outcome for trout fingerlings” value in data set [1] (various implementation conditions) was “death of the trout fingerlings”.
Regarding `OCl` [sodium hypochlorite], the Effects observed entry was “No effect” in data set [2] ([Cl2] 0.25 mg/l), “Reduction in mobility; also recorded: Accelerated ventilation” in data set [2] ([Cl2] 0.70 mg/l), “Highly reduced mobility; also recorded: Loss of appetite; also recorded: Very high ventilation; also recorded: Reduction in the size of the iris” in data set [2] ([Cl2] 1.4 mg/l) and “Swimming on the side then on the back; also recorded: Death” in data set [2] ([Cl2] 2.1 mg/l). The Mortality % observed is reported as 0% in data set [2] ([Cl2] 0.25 mg/l, 12 trout fingerlings); 10% in data set [2] ([Cl2] 0.70 mg/l); 60% in data set [2] ([Cl2] 1.4 mg/l); 100% in data set [2] ([Cl2] 2.1 mg/l).
On to `CCC(=O)C=O` [ethylglyoxal], for which the “Reducing activity of degradation by-product” value in data set [3] is given as “lessened reducing activity”.
Regarding `O=C1O[C@H]([C@@H](O)CO)C(O)=C1O` [ascorbic acid, L-ascorbic acid], the “Residual chlorine concentration after treatment” value in data set [4] is < 0.1 mg/L. In addition, the “Mortality of biological indicators” value in data set [5] (8 hours/day for twenty days, real operating conditions) is “did not generate any mortality”. Further, the “Elimination of chlorine in installation” value in data set [5] (in-flow 4.5 mg/l Cl2, water 160 l/h, 20% ascorbic acid 0.036 l/h, solution stored 0 to 60 days) was “complete neutralization”. Further, the “Behavior of trout fingerlings” value in data set [6] was “did not show any significant change in the behavior”. Moreover, in data set [7], the “Physical signs and mobility of trout fingerlings” value was “no abnormal physical signs and normal mobility”. For the same compound, the “Reduction in reducing power over time” value in data set [3] (10% ascorbic acid solution, darkness, approx. 20° C., after 35 days) is reported as −10%. For the same compound, the “Loss of reducing activity” value in data set [3] (ascorbic acid after 60 days, FIG. 1) stood at 5%. Further, the “Effectiveness of the product (chlorine elimination) after storage” value in data set [3] (at least 20% (200 g/l) solution, after 60 days of use) was “approximately 95%”. Further, the “Ascorbic acid flow rate for effective dechlorination” value in data set [8] (20% solution stored 60 days away from light at ambient temperature (R=3)) is 0.036 L/h; in data set [8] (20% solution, t=0, optimal setting (R=2.5)) it was 0.030 L/h. Besides, in data set [8] (ascorbic acid 60 days old), the “Decrease of speed of reaction with chlorine” value came out at 16%. Also, the Dechlorination yield in data set [8] (initial chlorine 4.5 mg/l equivalent Cl2, 20% ascorbic acid flow rate 0.030 l/h (R=2.5)) is reported as ~100%.
On to `O=C1O[C@H]([C@@H](O)CO)C([O-])=C1O.[Na+]` [Sodium ascorbate, sodium ascorbate], for which the Stability of reagent entry in data set [1] is recorded as “lack of stability”.
As for `O=C1O[C@H]([C@@H](O)CO)C(=O)C1=O` [dehydroascorbic acid], in data set [3], the “Reducing activity of degradation by-product” value is “equivalent to that of the initial ascorbic acid”.
